Measurements published in ChEMBL document CHEMBL3045524, “Development of a new acaricide, cyflumetofen” (J Pestic Sci, 2012).
≈ marks a conversion by molar mass, not a printed value.

Tests used:
[1] = Octanol-water partition co-efficient, log P of the compound; type: physicochemical
[2] = Solubility of the compound in water; type: physicochemical
Tetranychus kanzawai = assay: Acaricidal activity against Tetranychus kanzawai at developmental stages; type: functional
Panonychus citri = assay: Acaricidal activity against Panonychus citri at developmental stages; type: functional
Tetranychus urticae [3] = assay: Acaricidal activity against Tetranychus urticae (two-spotted spider mite) adult; type: functional
Tetranychus urticae [4] = assay: Acaricidal activity against Tetranychus urticae (two-spotted spider mite) larvae; type: functional

SMILES: COCCOC(=O)C(C#N)(C(=O)c1ccccc1C(F)(F)F)c1ccc(C(C)(C)C)cc1 (racemic) [CYFLUMETOFEN]
- logP [1]: 4.3
- solubility [2]: 0.0281 µg/mL (≈ 0.0628 µM)
- LC50 (Tetranychus kanzawai): < 5 µg/mL
- LC50 (Panonychus citri): < 5 µg/mL
- LC50 (Tetranychus urticae [3]): 4.8 µg/mL (≈ 10.7 µM)
- LC50 (Tetranychus urticae [4]): 0.9 µg/mL (≈ 2.01 µM)
